Three compounds from patent publication US20220144775A1, “HYDRAZIDE COMPOUND AND KINASE INHIBITOR” (NISSAN CHEMICAL CORPORATION, priority 2019, published 2022) can be followed below.

In assay [1] the target is T1, LATS2 (Homo sapiens, UniProt Q9NRM7).
T1 construct: purchased Carna Biosciences
T1 sequence (Q9NRM7 1-1088): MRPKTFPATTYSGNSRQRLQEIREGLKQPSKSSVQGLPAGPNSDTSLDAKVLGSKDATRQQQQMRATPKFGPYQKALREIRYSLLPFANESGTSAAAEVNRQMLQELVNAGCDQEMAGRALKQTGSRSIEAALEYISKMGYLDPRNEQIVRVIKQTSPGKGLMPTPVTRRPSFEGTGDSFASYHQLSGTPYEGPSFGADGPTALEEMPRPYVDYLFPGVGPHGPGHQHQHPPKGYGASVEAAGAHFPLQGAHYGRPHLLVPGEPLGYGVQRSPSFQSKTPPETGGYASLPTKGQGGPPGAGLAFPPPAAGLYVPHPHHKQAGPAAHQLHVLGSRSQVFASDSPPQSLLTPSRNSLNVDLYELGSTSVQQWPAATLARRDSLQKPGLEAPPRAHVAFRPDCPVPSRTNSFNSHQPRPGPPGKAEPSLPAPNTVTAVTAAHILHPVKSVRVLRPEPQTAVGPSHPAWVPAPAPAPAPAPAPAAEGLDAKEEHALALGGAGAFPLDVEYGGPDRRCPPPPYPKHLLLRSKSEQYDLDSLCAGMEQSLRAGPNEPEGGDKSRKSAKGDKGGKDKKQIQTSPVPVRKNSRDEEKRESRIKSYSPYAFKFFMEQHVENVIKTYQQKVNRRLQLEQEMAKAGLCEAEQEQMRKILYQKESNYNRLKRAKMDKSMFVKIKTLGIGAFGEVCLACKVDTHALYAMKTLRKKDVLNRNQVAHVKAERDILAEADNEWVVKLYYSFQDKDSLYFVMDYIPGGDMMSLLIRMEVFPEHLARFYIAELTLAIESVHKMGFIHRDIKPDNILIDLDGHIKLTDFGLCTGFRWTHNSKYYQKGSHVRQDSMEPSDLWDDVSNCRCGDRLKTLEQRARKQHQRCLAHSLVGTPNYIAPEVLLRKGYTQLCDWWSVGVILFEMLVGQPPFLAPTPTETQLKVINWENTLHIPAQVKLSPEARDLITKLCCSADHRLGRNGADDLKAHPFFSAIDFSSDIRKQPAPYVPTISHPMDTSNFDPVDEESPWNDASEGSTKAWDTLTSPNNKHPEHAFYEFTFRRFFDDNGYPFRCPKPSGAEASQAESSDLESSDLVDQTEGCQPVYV
As to the kind of experiment: Kinase inhibitory activity against LATS2 (ADP quantification). The assay is classed as biochemical. The settings on record: final concentration 1000 nM; ATP 400 μM; read-out: kinase inhibitory rate. As for the experimental part: (§1) Evaluation of the inhibitory activity (calculation of kinase inhibitory rate) of the compound of the present invention against LATS1 and LATS2 (manufactured by Carna Biosciences) was performed. The activity was measured using the Kinase Assay method described below. The test concentration of the compound of the present invention was set such that the final concentration was 100 nM or 1000 nM.
(§2) As the analysis method of the data, the mean signal of the control well containing reaction components other than the compound of the present invention was set to 0% inhibition, the mean signal without enzyme addition was set to 100% inhibition, and the inhibition rate was calculated from the mean signal of 2 wells of each compound.
(§3) 2 μL of a compound of the present invention solution at 2.5-fold concentration, 1 μL of substrate at 5-fold concentration (SGKtide: NH2-CKKRNRRLSVA-COOH, manufactured by SignalChem), ATP (manufactured by Sigma-Aldrich), MgCl2 (manufactured by FUJIFILM Wako Pure Chemical Corporation) solution (final concentration 10 μM, 400 μM and 5 mM, respectively), and 2 μL of kinase solution at 2.5-fold concentration (final concentration of LATS1 or LATS2 5 μg/mL), each prepared with assay buffer (20 mM HEPES, 0.01% Triton X-100, 2 mM DTT, 50 μg/mL BSA, pH 7.5), were mixed in the wells of a polypropylene 384-well plate (manufactured by Greiner Bio-One, #784900) and reacted at room temperature for 5 hr. To the solution was added 5 μL detection solution [Fluorospark (registered trade mark) Kinase/ADP Multi-Assay Kit; manufactured by FUJIFILM Wako Pure Chemical Corporation], and the mixture was reacted at room temperature for 30 min. Successively, 5 μL of a reaction quenching liquid [Fluorospark (registered trade mark) Kinase/ADP Multi-Assay Kit; manufactured by FUJIFILM Wako Pure Chemical Corporation] was added to discontinue the reaction. Thereafter, the ADP concentration of the reaction solution was quantified by EnSpire (manufactured by PerkinElmer) to detect the kinase reaction.

Assay [2] has as its target T2, LATS1 (Homo sapiens, UniProt O95835).
T2 construct: purchased Carna Biosciences
T2 sequence (O95835 1-1130): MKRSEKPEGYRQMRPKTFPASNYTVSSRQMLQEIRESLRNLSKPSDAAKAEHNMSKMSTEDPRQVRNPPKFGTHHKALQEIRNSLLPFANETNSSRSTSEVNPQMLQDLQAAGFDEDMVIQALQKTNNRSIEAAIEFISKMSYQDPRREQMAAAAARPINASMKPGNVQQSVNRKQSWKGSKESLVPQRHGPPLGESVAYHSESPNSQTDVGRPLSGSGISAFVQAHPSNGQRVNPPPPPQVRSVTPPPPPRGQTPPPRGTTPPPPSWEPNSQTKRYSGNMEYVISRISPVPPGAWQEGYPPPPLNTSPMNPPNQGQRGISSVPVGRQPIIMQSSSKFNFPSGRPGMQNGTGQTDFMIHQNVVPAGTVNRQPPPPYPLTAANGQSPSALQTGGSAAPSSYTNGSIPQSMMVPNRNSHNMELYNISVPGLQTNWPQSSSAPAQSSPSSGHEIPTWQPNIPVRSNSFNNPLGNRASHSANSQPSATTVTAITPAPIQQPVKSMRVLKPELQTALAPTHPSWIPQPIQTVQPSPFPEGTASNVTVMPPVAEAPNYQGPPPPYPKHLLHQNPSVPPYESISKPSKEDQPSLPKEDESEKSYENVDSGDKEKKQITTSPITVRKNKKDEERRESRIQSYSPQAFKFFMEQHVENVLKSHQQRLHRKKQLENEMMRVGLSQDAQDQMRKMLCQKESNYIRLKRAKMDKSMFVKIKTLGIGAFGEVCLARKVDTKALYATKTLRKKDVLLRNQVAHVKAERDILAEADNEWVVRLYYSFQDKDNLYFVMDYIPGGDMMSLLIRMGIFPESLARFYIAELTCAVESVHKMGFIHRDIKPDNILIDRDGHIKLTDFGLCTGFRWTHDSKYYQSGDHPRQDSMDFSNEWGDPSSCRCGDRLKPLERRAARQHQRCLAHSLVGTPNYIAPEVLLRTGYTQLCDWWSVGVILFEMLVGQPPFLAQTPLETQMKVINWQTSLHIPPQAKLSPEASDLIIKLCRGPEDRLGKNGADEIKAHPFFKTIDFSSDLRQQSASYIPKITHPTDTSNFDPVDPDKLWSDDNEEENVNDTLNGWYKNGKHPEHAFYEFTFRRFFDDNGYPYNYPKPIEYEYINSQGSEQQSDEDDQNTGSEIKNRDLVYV
As to the kind of experiment: Kinase inhibitory activity against LATS1 (ADP quantification). The assay is classed as biochemical. The settings on record: ATP 400 μM, read-out: kinase inhibitory rate; for inhibition at 1 µM: final concentration 1000 nM. As for the experimental part:
as §1, §2, §3

In the case of `CC/C(=N\NC(=O)[C@@H](C)Nc1ccc2cccnc2c1)c1ccc(O)c(C)c1O` [A-019, (R,E)-N′-[1-(2,4-dihydroxy-3-methylphenyl)propylidene]-2-(quinolin-7-ylamino)propanehydrazide], the inhibition at 1 µM in assay [1] and in assay [2] was at least 40% each time. Besides, the inhibition at 0.1 µM in assay [2] (final concentration 100 nM) was at least 40%.

On to `CC/C(=N\NC(=O)NCc1cccnc1)c1ccc(O)c(C)c1O` [B-001, (E)-2-(1-(2,4-dihydroxy-3-methylphenyl)propylidene)-N-(pyridin-3-ylmethyl)hydrazine-1-carboxamide], for which the inhibition at 1 µM in assay [1] and in assay [2] was at least 40% throughout.

On to `CC/C(=N\NC(=O)C(C)Oc1cccnc1)c1ccc(O)c(C)c1O` (stereo not shown) [C-001, (E)-N′-(1-(2,4-dihydroxy-3-methylphenyl)propylidene)-2-(pyridin-3-yloxy)propanehydrazide], for which the inhibition at 1 µM in assay [1] and in assay [2] was at least 40% each time.
